Data published in the NIST ThermoML archive (doi:10.1021/je034084d).

Conditions: for vapor or sublimation pressure: Liquid; for molar volume: Gas, isochoric method

FC(C(F)(F)F)C(F)(F)F [1,1,1,2,3,3,3-heptafluoropropane]
Conditions	vapor or sublimation pressure [kPa]
235.07 K	35.5
240.23 K	46.5
245.31 K	59.9
250.44 K	76.3
255.11 K	94.1
260.28 K	117.5
265.66 K	146.4
270.55 K	177.2
275.23 K	211.1
280.19 K	252.4
285.44 K	302.4
290.14 K	353.3
295.27 K	416.1
300.24 K	484.6
305.29 K	562.6
310.37 K	650.5
315.41 K	747.3
320.07 K	845.9
325.19 K	965.7
329.97 K	1088.3
335.04 K	1230.8
339.99 K	1383
345.15 K	1556.8
350.26 K	1744.7
355.11 K	1939
360.18 K	2159.7
365.27 K	2401.5

Conditions	molar volume [m3/mol]
293.37 K, 214.8 kPa	0.0106
298.02 K, 297.6 kPa	0.007594
298.06 K, 219 kPa	0.0106
298.58 K, 387 kPa	0.00567
303.22 K, 304.1 kPa	0.007596
303.42 K, 223.7 kPa	0.0106
303.52 K, 484.7 kPa	0.004479
303.65 K, 395.8 kPa	0.005671
308.37 K, 228 kPa	0.0106
308.57 K, 310.7 kPa	0.007598
308.57 K, 562.5 kPa	0.003857
308.67 K, 496.4 kPa	0.00448
308.69 K, 404.7 kPa	0.005672
313.63 K, 507.6 kPa	0.004481
313.69 K, 413.2 kPa	0.005673
314.14 K, 232.7 kPa	0.01061
314.16 K, 317.9 kPa	0.0076
314.22 K, 577.9 kPa	0.003858
318.62 K, 518.9 kPa	0.004482
318.66 K, 421.6 kPa	0.005675
319.44 K, 237.1 kPa	0.01061
319.6 K, 324.5 kPa	0.007601
319.97 K, 593.4 kPa	0.003859
323.74 K, 530.4 kPa	0.004483
323.82 K, 430.2 kPa	0.005676
324.15 K, 241.1 kPa	0.01061
324.21 K, 329.9 kPa	0.007603
324.39 K, 605.1 kPa	0.003859
328.01 K, 244.4 kPa	0.01061
328.19 K, 334.6 kPa	0.007604
328.2 K, 614.9 kPa	0.00386
328.46 K, 540.6 kPa	0.004484
328.9 K, 438.8 kPa	0.005677
333.39 K, 248.8 kPa	0.01062
333.4 K, 551.4 kPa	0.004485
333.62 K, 341.1 kPa	0.007606
333.92 K, 629.9 kPa	0.003861
334.02 K, 447.3 kPa	0.005679
338.69 K, 642 kPa	0.003862
338.92 K, 253.5 kPa	0.01062
338.96 K, 347.5 kPa	0.007608
338.96 K, 563.3 kPa	0.004486
339.15 K, 455.7 kPa	0.00568
343.8 K, 257.7 kPa	0.01062
343.94 K, 655.2 kPa	0.003863
343.99 K, 353.6 kPa	0.00761
344.11 K, 574.3 kPa	0.004487
344.27 K, 464.1 kPa	0.005681
348.97 K, 359.5 kPa	0.007611
349.04 K, 261.8 kPa	0.01062
349.14 K, 668.4 kPa	0.003864
349.17 K, 585 kPa	0.004488
349.21 K, 472.1 kPa	0.005682
353.32 K, 364.5 kPa	0.007613
353.39 K, 679.1 kPa	0.003864
353.64 K, 265.6 kPa	0.01063
354.39 K, 596 kPa	0.004489
354.73 K, 481 kPa	0.005684
